According to patent US11535643B2, “Macrolides with modified desosamine sugars and uses thereof” (President and Fellows of Harvard College, priority 2015, dated 2022):
Values after ≈ are worked out from the molar mass of the structure shown. Like-named read-outs stand apart in the source and are kept apart here.

Key:
Assay type in all cases: cell-based
A. baumannii = assay: Broth dilution MIC determination (CLSI) against A. baumannii strains; conditions: Acinetobacter baumannii
Summary of the method: (§1)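 MICs were determined by CLSI standard broth dilution against several strains per species, including multidrug-resistant and macrolide-resistant strains. Azithromycin and solithromycin served as control compounds.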

S. pyogenes = assay: Broth dilution MIC determination (CLSI) against S. pyogenes strains; conditions: Streptococcus pyogenes
Summary of the method: as §1

H. influenzae = assay: Broth dilution MIC determination (CLSI) against H. influenzae strains; conditions: Haemophilus influenzae
From the text: Minimum inhibitory concentrations (MICs) for macrolides described herein have been determined for unique strains of S. aureus, S. pneumoniae, S. pyogenes, E. faecalis, E. coli, A. baumannii, K. pneumoniae, P. aeruginosa, and H. influenzae, including several multidrug-resistant strains, with a special focus on macrolide resistant mechanisms. Azithromycin and solithromycin were included as control compounds. CLSI standard procedures for broth dilution MIC determination were used. Data for exemplary compounds described herein is shown in Tables M1-M7 and in Tables N1-N4.

P. aeruginosa = assay: Broth dilution MIC determination (CLSI) against P. aeruginosa strains; conditions: Pseudomonas aeruginosa
Summary of the method: as §1

E. faecalis = assay: Broth dilution MIC determination (CLSI) against E. faecalis strains; conditions: Enterococcus faecalis
Summary of the method: as §1

S. aureus = assay: Broth dilution MIC determination (CLSI) against S. aureus strains; conditions: Staphylococcus aureus
Summary of the method: as §1

S. pneumoniae = assay: Broth dilution MIC determination (CLSI) against S. pneumoniae strains; conditions: Streptococcus pneumoniae
Summary of the method: as §1

E. coli = assay: Broth dilution MIC determination (CLSI) against E. coli strains; conditions: Escherichia coli
Summary of the method: as §1

K. pneumoniae = assay: Broth dilution MIC determination (CLSI) against K. pneumoniae strains; conditions: Klebsiella pneumoniae
Summary of the method: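 Azithromycin and solithromycin served as controls; MICs were obtained by standard CLSI broth dilution on a strain panel including multidrug-resistant and macrolide-resistant isolates.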

[1] = ATCC19606, ATCC19606, read-out: MIC A. baumannii ATCC19606
[2] = IMP-4, read-out: MIC A. baumannii IMP-4
[3] = chromosomal class C, read-out: MIC A. baumannii chromosomal class C
[4] = imipenem-resistant, read-out: MIC A. baumannii imipenem-resistant
[5] = ATCC19615, ATCC19615, read-out: MIC S. pyogenes ATCC19615
[6] = macrolide-resistant, read-out: MIC S. pyogenes macrolide-resistant
[7] = ATCC49247, ATCC49247, read-out: MIC H. influenzae ATCC49247
[8] = erythro > 4, azithro 1, read-out: MIC H. influenzae erythro > 4, azithro 1
[9] = ATCC27853, read-out: MIC P. aeruginosa ATCC27853
[10] = read-out: MIC P. aeruginosa HPA101-1477
[11] = ATCC29212, ATCC29212, read-out: MIC E. faecalis ATCC29212
[12] = Vancomycin-resistant, read-out: MIC E. faecalis Vancomycin-resistant
[13] = ATCC29213, ATCC29213, read-out: MIC S. aureus ATCC29213
[14] = MRSA / USA100, MRSA: USA100, read-out: MIC S. aureus MRSA: USA100
[15] = MRSA / USA300, MRSA: USA300, read-out: MIC S. aureus MRSA: USA300
[16] = USA600, USA600, GISA, read-out: MIC S. aureus USA600, GISA
[17] = read-out: MIC S. aureus erm A genotype
[18] = ATCC49619, ATCC49619, read-out: MIC S. pneumoniae ATCC49619
[19] = erm B + mef A genotype, read-out: MIC S. pneumoniae erm B + mef A genotype
[20] = erm B + tet(M, O) genotype, read-out: MIC S. pneumoniae erm B + tet(M, O) genotype
[21] = read-out: MIC S. pneumoniae mef A genotype, mef A genotype
[22] = read-out: MIC S. pneumoniae mef A genotype, mef A genotype, first of two such columns (c3)
[23] = ATCC25922, ATCC25922, read-out: MIC E. coli ATCC25922
[24] = read-out: MIC E. coli CTX-M-14, CTX-M-14
[25] = read-out: MIC E. coli NDM-1, NDM-1
[26] = read-out: MIC E. coli TEM-1, TEM-1
[27] = ATCC10031, ATCC10031, read-out: MIC K. pneumoniae ATCC10031
[28] = KPC-2, read-out: MIC K. pneumoniae KPC-2
[29] = SHV-12, read-out: MIC K. pneumoniae SHV-12
[30] = TEM-10, read-out: MIC K. pneumoniae TEM-10

SMILES | MIC (A. baumannii; [1]) | MIC (A. baumannii; [2]) | MIC (A. baumannii; [3]) | MIC (A. baumannii; [4]) | MIC (S. pyogenes; [5]) | MIC (S. pyogenes; [6]) | MIC (H. influenzae; [7]) | MIC (H. influenzae; [8]) | MIC (P. aeruginosa; [9]) | MIC (P. aeruginosa; [10]) | MIC (E. faecalis; [11]) | MIC (E. faecalis; [12]) | MIC (S. aureus; [13]) | MIC (S. aureus; [14]) | MIC (S. aureus; [15]) | MIC (S. aureus; [16]) | MIC (S. aureus; [17]) | MIC (S. pneumoniae; [18]) | MIC (S. pneumoniae; [19]) | MIC (S. pneumoniae; [20]) | other results
CC[C@H]1OC(=O)[C@H](C)C(=O)[C@H](C)[C@@H](O[C@@H]2OC(CNC(=O)c3ccccn3)CC(N(C)C)C2O)[C@](C)(OC)C[C@@H](C)CN[C@H](C)[C@H]2N(CCCCn3cc(-c4cccc(N)c4)nn3)C(=O)O[C@]12C (stereo partly drawn) [FSM-21887] | 32 µg/mL (≈ 33.7 µM) | > 32 µg/mL | 32 µg/mL (≈ 33.7 µM) | 32 µg/mL (≈ 33.7 µM) | ≤ 0.0312 µg/mL | 1 µg/mL (≈ 1.05 µM) | 2 µg/mL (≈ 2.11 µM) | 2 µg/mL (≈ 2.11 µM) | > 32 µg/mL | > 32 µg/mL | 0.5 µg/mL (≈ 0.527 µM) | > 32 µg/mL | 8 µg/mL (≈ 8.44 µM) | > 32 µg/mL | > 32 µg/mL | > 32 µg/mL | > 32 µg/mL | ≤ 0.0312 µg/mL | 1 µg/mL | ≤ 0.0312 µg/mL | MIC (S. pneumoniae; [21]): 0.5 µg/mL (≈ 0.527 µM); MIC (S. pneumoniae; [22]): 0.0625 µg/mL (≈ 0.0659 µM); MIC (E. coli; [23]): 16 µg/mL (≈ 16.9 µM); MIC (E. coli; [24]): > 32 µg/mL; MIC (E. coli; [25]): 32 µg/mL (≈ 33.7 µM); MIC (E. coli; [26]): 16 µg/mL (≈ 16.9 µM); MIC (K. pneumoniae; [27]): 8 µg/mL (≈ 8.44 µM); MIC (K. pneumoniae; [28]): > 32 µg/mL; MIC (K. pneumoniae; [29]): > 32 µg/mL; MIC (K. pneumoniae; [30]): 16 µg/mL (≈ 16.9 µM)
CC[C@H]1OC(=O)[C@H](C)C(=O)[C@H](C)[C@@H](O[C@@H]2OC(Cn3cc(-c4cnc(N)s4)nn3)CC(N(C)C)C2O)[C@](C)(OC)C[C@@H](C)CN[C@H](C)[C@H]2N(CCCCn3cc(-c4cccc(N)c4)nn3)C(=O)O[C@]12C (stereo partly drawn) [FSM-22125] | > 32 µg/mL | > 32 µg/mL | 32 µg/mL (≈ 32.2 µM) | > 32 µg/mL | ≤ 0.0312 µg/mL | 4 µg/mL (≈ 4.03 µM) | 4 µg/mL (≈ 4.03 µM) | 2 µg/mL (≈ 2.01 µM) | > 32 µg/mL | > 32 µg/mL | 0.5 µg/mL (≈ 0.503 µM) | > 32 µg/mL | 4 µg/mL (≈ 4.03 µM) | > 32 µg/mL | > 32 µg/mL | > 32 µg/mL | > 32 µg/mL | ≤ 0.0312 µg/mL | > 32 µg/mL | ≤ 0.0312 µg/mL | MIC (S. pneumoniae; [21]): 4 µg/mL (≈ 4.03 µM); MIC (S. pneumoniae; [22]): 0.5 µg/mL (≈ 0.503 µM); MIC (E. coli; [23]): 32 µg/mL (≈ 32.2 µM); MIC (E. coli; [24]): > 32 µg/mL; MIC (E. coli; [25]): > 32 µg/mL; MIC (E. coli; [26]): 16 µg/mL (≈ 16.1 µM); MIC (K. pneumoniae; [27]): 32 µg/mL (≈ 32.2 µM); MIC (K. pneumoniae; [28]): > 32 µg/mL; MIC (K. pneumoniae; [29]): > 32 µg/mL; MIC (K. pneumoniae; [30]): 32 µg/mL (≈ 32.2 µM)
CC[C@H]1OC(=O)[C@H](C)C(=O)[C@H](C)[C@@H](O[C@@H]2OC(CNC(=O)c3cnccn3)CC(N(C)C)C2O)[C@](C)(OC)C[C@@H](C)CN[C@H](C)[C@H]2N(CCCCn3cc(-c4cccc(N)c4)nn3)C(=O)O[C@]12C (stereo partly drawn) [FSM-21881] | > 32 µg/mL | > 32 µg/mL | > 32 µg/mL | > 32 µg/mL | ≤ 0.0312 µg/mL | 2 µg/mL (≈ 2.11 µM) | 8 µg/mL (≈ 8.43 µM) | 2 µg/mL (≈ 2.11 µM) | > 32 µg/mL | > 32 µg/mL | 2 µg/mL (≈ 2.11 µM) | > 32 µg/mL | 8 µg/mL (≈ 8.43 µM) | > 32 µg/mL | > 32 µg/mL | > 32 µg/mL | > 32 µg/mL | ≤ 0.0312 µg/mL | 4 µg/mL | ≤ 0.0312 µg/mL | MIC (S. pneumoniae; [21]): 2 µg/mL (≈ 2.11 µM); MIC (S. pneumoniae; [22]): 0.5 µg/mL (≈ 0.527 µM); MIC (E. coli; [23]): 16 µg/mL (≈ 16.9 µM); MIC (E. coli; [24]): > 32 µg/mL; MIC (E. coli; [25]): > 32 µg/mL; MIC (E. coli; [26]): 32 µg/mL (≈ 33.7 µM); MIC (K. pneumoniae; [27]): 8 µg/mL (≈ 8.43 µM); MIC (K. pneumoniae; [28]): > 32 µg/mL; MIC (K. pneumoniae; [29]): > 32 µg/mL; MIC (K. pneumoniae; [30]): 32 µg/mL (≈ 33.7 µM)
